Test results as given in US6994981B2, “Modulators of paraptosis and related methods” (The Buck Institute, priority 2002, dated 2006).

Key:
[1] = system: striatal, cortical, and hippocampal neurons; assay: SP-induced cell death in primary striatal, cortical and hippocampal neurons, trypan blue viability and staining; type: cell-based, rat
Procedure: Rat neuronal primary cell cultures were also used to assay for inducers and inhibitors of paraptosis. Briefly, primary striatal, cortical and hippocampal cultures were prepared from 17-day-old Sprague-Dawley rat embryos (B&K). The tissue was dissected, minced and trypsinized for five minutes using 0.25% trypsin (Cell Grow). After the addition of 10% horse serum (Life Technologies) to inhibit the trypsin, the cell suspension was triturated 15–20 times with a 10 ml syringe and centrifuged for five minutes at 800×g. The pellet was resuspended in MEM-PAK (UCSF Cell Culture facility), supplemented with 2.02 gm glucose, 2 mM GLUTAMAX™ (Life Technologies) and penicillin/streptomycin (100 U/ml). The suspension was filtered through a […] cell strainer and the final culture medium contained 5% horse serum. Subsequently, 3-4×10^5 cells per Cm^2 were seeded onto either poly-D-lysine precoated 8-well chamber slides (Becton-Dickson Labware) or 96 well plates precoated with […] of poly-D-lysine (Sigma) in water. After 30 minutes of incubation time, unattached cells were removed together with the medium and replaced with glucose enriched MEM-PAK plus 5% horse serum. The cultures were then incubated at 37° C. in 95% air 5% carbon dioxide with 95% humidity. Cultures were used for experiments between day 1 and day 7 when glial contamination was at a minimum.
Primary neuronal cells were prepared as described in Example I. SP (SIGMA) at a concentration of 0.1 nM–100 μM was added 24–48 hrs after seeding, in the presence of 2.5% horse serum. When the cultures were maintained for more than 5 days, 10 μM cytosine arabinoside was added for 24 hours, beginning 3 days after plating the cells. Viability was quantified by trypan blue staining of the total cell population.
The following compounds were added at the same time as SP in the indicated experiments: 5 nM L-732, 138; 1 nM L-733,060; 1 μg/ml Actinomycin D or 1 μg/ml Cycloheximide. All of these compounds were obtained from SIGMA. The caspase inhibitors zVAD.fmk and BAF were added at 50 μM and obtained from Enzyme System Products, Livermore, Calif.
Either neuronal primary cultures or human embryonic kidney 293T cells were fixed with 4% paraformaldehyde and stained with 0.5 μg/ml DAPI (Molecular Probes) or Hoechst(SIGMA). […]
The protein kinase inhibitors were added 30 min before SP exposure at the following concentrations: 10 μM Rp-8-Br-cAMPS (adenosin 3′,5′-cyclic monophosphorothioate, 8-bromo-, Rp-isomer, sodium salt) which is a PKA inhibitor; 50 nM Calphostin C, which is a PKC inhibitor; 10 μM PD 98059 which is a MAPKK (MEK) inhibitor. These compounds were obtained from Calbiochem. Viability was quantified by trypan blue staining of the total cell population.

total cellular cAMP = assay: cAMP quantification in 293T cells overexpressing NK1R; type: cell-based, human; settings: compared with 10 μM forskolin
Procedure: Total cellular cAMP was measured using the BiotrakBIOTRAK™ non-acetylation enzymeimmunoassay system (Amersham Phramacia Biotech), following manufacturer's instructions. Forskolin (Sigma) was added at 10 μM.

cytochrome c release = settings: cell-free system of apoptosis; cited from earlier work
ERK-1/2 [2] = assay: Western blot of ERK-1/2 phosphorylation in striatal neurons; type: cell-based, rat; settings: after 10–30 min of SP stimulation; total ERK-1/2 unchanged
Procedure: (§1) For the transfected 293T cells, cells were washed with cold PBS after incubation with SP the time indicate and homogenized on lysis buffer (150 mM NaCl, 1% Triton X-100, 50 mM Tris HCL pH8.0). Cytoplasmic extracts were collected after 10 min centrifugation at 14,000 rcf. Total amount of protein was quantified by Bradford assay and electrophoresis of equal amounts of total protein was performed on SDS-polyacrylamide gels. Separated proteins were transferred to polyvinylidene fluoride membranes at 4° C. for Western blot analysis. Membranes were probed with a 1:1000 dilution of anti-ERK-1/2 or anti phospho-ERK-1/2 (BioSource). The blots were incubated in a horseradish peroxidase coupled secondary antibody for 1 h followed by enhanced chemiluminescence detection of the proteins with […]™ ECL detection (Amersham, Arlington Heights, Ill.). For striatal neurons, total ERK-1/2 was immunoprecipitated using superparamagnetic Microbeads conjugated to protein A, following manufacture's instructions (MACS, Miltenyi Biotec), and then developed by Western blot against either anti-ERK-1/2 or anti phospho-ERK-1/2.

ERK-1/2 [3] = assay: Western blot of ERK-1/2 phosphorylation in 293T cells expressing NK1R; type: cell-based, human; settings: 293T cells expressing the wild type NK1R, but not NK1Rd342
Procedure: as §1

With “SP: eleven amino acid neurotransmitter of the tachykinin family, ligand of NK1R” the “sensitivity of neurons to SP” value ([1]; 48 hours after exposure) was “sensitive to micromolar concentrations”, the “effect of SP isomer on neuronal cell death” value ([1]; L or D isomer) was “induced cell death” and the “sensitivity of neurons to SP” value ([1]; seven days after exposure, SP added only once) was “sensitive to nanomolar concentrations”. For the same substance, the “production of cAMP in response to SP” value (total cellular cAMP) was “Neither the wild type nor the mutant NK1Rd342 overexpressed in 293T cells generated a significant amount of cAMP”, the cytochrome c release (cytochrome c release) was “can induce cytochrome c release” and the “amount of phosphorylated ERK-1/2” value (ERK-1/2 [2]) was “increase”. For the same substance, the “activation of ERK-1/2 by SP” value (ERK-1/2 [3]) was “activation of ERK-1/2”.
